Data taken from US8192962B2, “Processes for detecting toxic substances” (Daikin Industries, Ltd., priority 2001, dated 2012).

Test system: Metabolism protein genes
Test: DNA chip mRNA expression in yeast, metabolism protein genes (Table 7)
Format: cell-based, Saccharomyces cerevisiae S288C
Protocol: Yeast (Saccharomyces cerevisiae S288C (α SUC2mal mel gap2 CUP1)) were incubated at 25° C. on YPD medium (yeast extract 1%, polypepton 2%, glucose 2%). One of toxic chemical substances was added to the cells at logarithmic growth phase, and the cells were further incubated for two hours. Cells were cultured without any chemical substance in the same condition, and were used as control. Concentrations of the chemical substances were defined to inhibit the growth of the yeast but not lead to death.
After completion of the incubation, the culture was centrifuged to collect the cells. To the cells, sodium acetate buffer (50 mM sodium acetate, 10 mM EDTA, 1% SDS) was added, and the mixture was shaken at 65° C. for five minutes, followed by returning to room temperature, and obtaining the supernatant, of which the procedures were repeated two times. To the supernatant, ½ amount of a solution of phenol/chloroform was added, and the mixture was centrifuged to give a supernatant, which was added with an equal amount of chloroform, and the mixture was centrifuged to give a supernatant. To the supernatant, an equal amount of isopropanol containing 0.3 M sodium acetate was added, and the mixture was allowed to stand at room temperature for 30 minutes, after which the mixture was centrifuged to give a sediment of the whole RNAs. Seventy % ethanol was added to the sediment, and the mixture was again centrifuged to give a sediment, which was then dried and dissolved in water. mRNA was isolated from the whole RNAs as followings. In view of the fact that a poly A chain is attached to the 3′ terminus of mRNA, a polynucleotide having a poly T structure which was immobilized on the surface of latex beads was used to trap the mRNA, and then the mRNA was washed and eluted with spine column (Oligotex-dT30<Super>mRNA Purification Kit, Takara). Reverse transcription of the mRNA was conducted with a reverse transcriptase (Super Script II Reverse Transcriptase; catalogue No. 18064-014, GibcoBRL) using fluorescence-labeled nucleotides to give cDNAs that were introduced with Cy3-dUTP or Cy5-dUTP during the reverse transcription.
The labeled cDNAs were dissolved in TE buffer (10mM Tris-HCl/1 mM EDTA, pH8.0), and the solution was dropped on the DNA chip containing the whole genes of yeast (DNA Chip Research Inc. Japan) so that the cDNAs were hybridized on the DNA chip at 65° C. for over 12 hours. The fluoresces intensity of the DNA chip was read with a scanner, and the ratio relative to the fluorescence intensity resulting from the absence of chemical substance was estimated as the following, which is shown in Tables 1 to 9: […]

CCCCC[C@H](O)CC(=O)CCc1ccc(O)c(OC)c1 [(13), gingerol]
0.7: level of expressed mRNA in the presence/in the absence of chemical substance (yeast gene YDR400W) | level of expressed mRNA in the presence/in the absence of chemical substance (yeast gene YGL115W) | level of expressed mRNA in the presence/in the absence of chemical substance (yeast gene YHR025W)
0.3: The level of expressed mRNA in the presence of chemical substance/The level of expressed mRNA in the absence of chemical substance (yeast gene YAR071W) | level of expressed mRNA in the presence/in the absence of chemical substance (yeast gene YGL012W)
0.9: The level of expressed mRNA in the presence of chemical substance/The level of expressed mRNA in the absence of chemical substance (yeast gene YBR014C) | level of expressed mRNA in the presence/in the absence of chemical substance (yeast gene YDR123C)
5.3: The level of expressed mRNA in the presence of chemical substance/The level of expressed mRNA in the absence of chemical substance (yeast gene YDL021W)
0.5: The level of expressed mRNA in the presence of chemical substance/The level of expressed mRNA in the absence of chemical substance (yeast gene YBR023C) | level of expressed mRNA in the presence/in the absence of chemical substance (yeast gene YDR408C)
4.7: The level of expressed mRNA in the presence of chemical substance/The level of expressed mRNA in the absence of chemical substance (yeast gene YFL056C)
2.5: The level of expressed mRNA in the presence of chemical substance/The level of expressed mRNA in the absence of chemical substance (yeast gene YDR516C)
0.2: level of expressed mRNA in the presence/in the absence of chemical substance (yeast gene YCR034W)
2.7: The level of expressed mRNA in the presence of chemical substance/The level of expressed mRNA in the absence of chemical substance (yeast gene YJL068C)
4.1: The level of expressed mRNA in the presence of chemical substance/The level of expressed mRNA in the absence of chemical substance (yeast gene YER053C) | The level of expressed mRNA in the presence of chemical substance/The level of expressed mRNA in the absence of chemical substance (yeast gene YFL057C)
1.9: The level of expressed mRNA in the presence of chemical substance/The level of expressed mRNA in the absence of chemical substance (yeast gene YER026C) | The level of expressed mRNA in the presence of chemical substance/The level of expressed mRNA in the absence of chemical substance (yeast gene YGL209W) | The level of expressed mRNA in the presence of chemical substance/The level of expressed mRNA in the absence of chemical substance (yeast gene YGR055W) | The level of expressed mRNA in the presence of chemical substance/The level of expressed mRNA in the absence of chemical substance (yeast gene YHR176W) | The level of expressed mRNA in the presence of chemical substance/The level of expressed mRNA in the absence of chemical substance (yeast gene YIL107C) | The level of expressed mRNA in the presence of chemical substance/The level of expressed mRNA in the absence of chemical substance (yeast gene YIR036C)
1.5: level of expressed mRNA in the presence/in the absence of chemical substance (yeast gene YBR011C) | The level of expressed mRNA in the presence of chemical substance/The level of expressed mRNA in the absence of chemical substance (yeast gene YDL022W) | level of expressed mRNA in the presence/in the absence of chemical substance (yeast gene YDR178W) | The level of expressed mRNA in the presence of chemical substance/The level of expressed mRNA in the absence of chemical substance (yeast gene YDR487C) | The level of expressed mRNA in the presence of chemical substance/The level of expressed mRNA in the absence of chemical substance (yeast gene YEL011W) | level of expressed mRNA in the presence/in the absence of chemical substance (yeast gene YHR123W)
0.6: level of expressed mRNA in the presence/in the absence of chemical substance (yeast gene YDR073W) | level of expressed mRNA in the presence/in the absence of chemical substance (yeast gene YER081W) | The level of expressed mRNA in the presence of chemical substance/The level of expressed mRNA in the absence of chemical substance (yeast gene YHR137W)
7.4: The level of expressed mRNA in the presence of chemical substance/The level of expressed mRNA in the absence of chemical substance (yeast gene YGL184C)
1.1: The level of expressed mRNA in the presence of chemical substance/The level of expressed mRNA in the absence of chemical substance (yeast gene YAL012W) | The level of expressed mRNA in the presence of chemical substance/The level of expressed mRNA in the absence of chemical substance (yeast gene YAL044C) | level of expressed mRNA in the presence/in the absence of chemical substance (yeast gene YBR020W) | level of expressed mRNA in the presence/in the absence of chemical substance (yeast gene YEL063C) | level of expressed mRNA in the presence/in the absence of chemical substance (yeast gene YGR096W)
0.4: level of expressed mRNA in the presence/in the absence of chemical substance (yeast gene YHR210C)
1.8: The level of expressed mRNA in the presence of chemical substance/The level of expressed mRNA in the absence of chemical substance (yeast gene YAL038W) | The level of expressed mRNA in the presence of chemical substance/The level of expressed mRNA in the absence of chemical substance (yeast gene YAL054C) | The level of expressed mRNA in the presence of chemical substance/The level of expressed mRNA in the absence of chemical substance (yeast gene YBR035C)
1.6: The level of expressed mRNA in the presence of chemical substance/The level of expressed mRNA in the absence of chemical substance (yeast gene YBR111C) | The level of expressed mRNA in the presence of chemical substance/The level of expressed mRNA in the absence of chemical substance (yeast gene YBR222C) | The level of expressed mRNA in the presence of chemical substance/The level of expressed mRNA in the absence of chemical substance (yeast gene YCL009C) | The level of expressed mRNA in the presence of chemical substance/The level of expressed mRNA in the absence of chemical substance (yeast gene YCL064C)
1.4: The level of expressed mRNA in the presence of chemical substance/The level of expressed mRNA in the absence of chemical substance (yeast gene YBR183W) | The level of expressed mRNA in the presence of chemical substance/The level of expressed mRNA in the absence of chemical substance (yeast gene YCR098C) | The level of expressed mRNA in the presence of chemical substance/The level of expressed mRNA in the absence of chemical substance (yeast gene YER069W)
2.2: The level of expressed mRNA in the presence of chemical substance/The level of expressed mRNA in the absence of chemical substance (yeast gene YBR068C) | The level of expressed mRNA in the presence of chemical substance/The level of expressed mRNA in the absence of chemical substance (yeast gene YFL030W) | The level of expressed mRNA in the presence of chemical substance/The level of expressed mRNA in the absence of chemical substance (yeast gene YGR194C) | The level of expressed mRNA in the presence of chemical substance/The level of expressed mRNA in the absence of chemical substance (yeast gene YHR111W)
1.7: The level of expressed mRNA in the presence of chemical substance/The level of expressed mRNA in the absence of chemical substance (yeast gene YBR029C) | The level of expressed mRNA in the presence of chemical substance/The level of expressed mRNA in the absence of chemical substance (yeast gene YIL154C)
0.8: level of expressed mRNA in the presence/in the absence of chemical substance (yeast gene YER015W) | level of expressed mRNA in the presence/in the absence of chemical substance (yeast gene YFL011W) | level of expressed mRNA in the presence/in the absence of chemical substance (yeast gene YIL006W)
2.6: The level of expressed mRNA in the presence of chemical substance/The level of expressed mRNA in the absence of chemical substance (yeast gene YFL031W) | The level of expressed mRNA in the presence of chemical substance/The level of expressed mRNA in the absence of chemical substance (yeast gene YIR034C) | The level of expressed mRNA in the presence of chemical substance/The level of expressed mRNA in the absence of chemical substance (yeast gene YJL031C)
1.0: The level of expressed mRNA in the presence of chemical substance/The level of expressed mRNA in the absence of chemical substance (yeast gene YBL001C) | level of expressed mRNA in the presence/in the absence of chemical substance (yeast gene YCR010C) | The level of expressed mRNA in the presence of chemical substance/The level of expressed mRNA in the absence of chemical substance (yeast gene YDR019C) | level of expressed mRNA in the presence/in the absence of chemical substance (yeast gene YER120W) | The level of expressed mRNA in the presence of chemical substance/The level of expressed mRNA in the absence of chemical substance (yeast gene YGL022W) | level of expressed mRNA in the presence/in the absence of chemical substance (yeast gene YGL205W) | level of expressed mRNA in the presence/in the absence of chemical substance (yeast gene YGR191W) | The level of expressed mRNA in the presence of chemical substance/The level of expressed mRNA in the absence of chemical substance (yeast gene YJL088W)
3.5: The level of expressed mRNA in the presence of chemical substance/The level of expressed mRNA in the absence of chemical substance (yeast gene YBR256C)
1.3: The level of expressed mRNA in the presence of chemical substance/The level of expressed mRNA in the absence of chemical substance (yeast gene YCR037C) | The level of expressed mRNA in the presence of chemical substance/The level of expressed mRNA in the absence of chemical substance (yeast gene YCR048W) | level of expressed mRNA in the presence/in the absence of chemical substance (yeast gene YDR483W) | level of expressed mRNA in the presence/in the absence of chemical substance (yeast gene YGR204W) | level of expressed mRNA in the presence/in the absence of chemical substance (yeast gene YGR288W)
1.2: level of expressed mRNA in the presence/in the absence of chemical substance (yeast gene YBR003W) | The level of expressed mRNA in the presence of chemical substance/The level of expressed mRNA in the absence of chemical substance (yeast gene YDR009W) | level of expressed mRNA in the presence/in the absence of chemical substance (yeast gene YDR277C) | level of expressed mRNA in the presence/in the absence of chemical substance (yeast gene YDR284C) | level of expressed mRNA in the presence/in the absence of chemical substance (yeast gene YDR345C) | The level of expressed mRNA in the presence of chemical substance/The level of expressed mRNA in the absence of chemical substance (yeast gene YDR410C) | The level of expressed mRNA in the presence of chemical substance/The level of expressed mRNA in the absence of chemical substance (yeast gene YDR502C) | The level of expressed mRNA in the presence of chemical substance/The level of expressed mRNA in the absence of chemical substance (yeast gene YGR282C) | The level of expressed mRNA in the presence of chemical substance/The level of expressed mRNA in the absence of chemical substance (yeast gene YIL167W)
2.3: The level of expressed mRNA in the presence of chemical substance/The level of expressed mRNA in the absence of chemical substance (yeast gene YER096W)
2.4: The level of expressed mRNA in the presence of chemical substance/The level of expressed mRNA in the absence of chemical substance (yeast gene YER178W)
2.0: The level of expressed mRNA in the presence of chemical substance/The level of expressed mRNA in the absence of chemical substance (yeast gene YBR296C) | level of expressed mRNA in the presence/in the absence of chemical substance (yeast gene YDR050C) | The level of expressed mRNA in the presence of chemical substance/The level of expressed mRNA in the absence of chemical substance (yeast gene YGL248W) | The level of expressed mRNA in the presence of chemical substance/The level of expressed mRNA in the absence of chemical substance (yeast gene YIL045W) | The level of expressed mRNA in the presence of chemical substance/The level of expressed mRNA in the absence of chemical substance (yeast gene YIL155C)
